Assay results taken from US20170239237A1, “PYRROLOQUINOLINE DERIVATIVES AS 5-HT6 ANTAGONISTS, PREPARATION METHOD AND USE THEREOF” (Uniwersytet Jagiellonski, priority 2013, published 2017).

How the values were obtained:
Wistar rats [1] = assay: Forced swim test (FST) in Wistar rats; assay type: in vivo, rat; details: IP, 60 minutes before the test; Wistar rats
Method: (§1) For intraperitoneal (i.p.) administration: to the desired quantity of the solid compound in a glass beaker, required volume of sterile water for injection was added and swirled with glass bar until complete dissolution of the compound.
(§2) Animals. Male Wistar rats weighing 220-250 g were used in the test. […] All animals were kept in an environmentally controlled rooms (ambient temperature 22±2° C; relative humidity 50-60%; 12:12 light:dark cycle, lights on at 8:00). They were allowed to acclimatize with the environment for one week before commencement of the experiments. Standard laboratory food (Ssniff M-Z) and filtered water were freely available. The experiments were conducted in the light phase between 09.00 and 14.00 hours. 1 h before the start of the experiment, rats were transferred to the experimental room for acclimation.
Apparatus and procedure. […] On the first day of experiment, the animals were gently individually placed in Plexiglas cylinders (40 cm high, 18 cm in diameter) containing 15 cm of water maintained at 25° C. for 15 min. Upon removal from water, the rats were placed in a Plexiglas box for 30 min under a 60-W bulb to dry off. On the following day, the rats were placed again in the cylinder and the total duration of immobility was recorded throughout the 5-min test period. Fresh water was used for each animal.
(§3) Experimental design. The compounds were administered IP, 60 minutes before the test.
(§4) Drugs. The experimental compounds were dissolved in the distilled water. All compounds were administrated in the volume of 2 ml/kg.

Wistar rats [2] = assay: Conflict drinking test (Vogel test) in Wistar rats; assay type: in vivo, rat; details: IP, 60 minutes before the test; Wistar rats
Method: as §1, §2
Apparatus and procedure. […] Experimental chambers were connected to PC software by control chassis and electric shocks' generator. On the first day of the experiment, the rats were adapted to the test chambers for 10 min. […] Afterwards, they were allowed a 30-min free-drinking session in their home cages. […] Recording data started immediately after the first lick and every 20 licks rats were punished with an electric shock (0.5 mA, lasting 1 s). The impulses were released via the spout of the drinking bottles. If a rat was drinking when an impulse was released, it received a shock. The number of licks and the number of shocks received during a 5-min experimental session was recorded automatically.
as §3, §4

H1 receptors = H1 receptors (Homo sapiens, UniProt P35367); assay: biochemical; details: read-out: % inhibition of control binding at 10^−6M, H1
H1 receptors, sequence (P35367 whole entry): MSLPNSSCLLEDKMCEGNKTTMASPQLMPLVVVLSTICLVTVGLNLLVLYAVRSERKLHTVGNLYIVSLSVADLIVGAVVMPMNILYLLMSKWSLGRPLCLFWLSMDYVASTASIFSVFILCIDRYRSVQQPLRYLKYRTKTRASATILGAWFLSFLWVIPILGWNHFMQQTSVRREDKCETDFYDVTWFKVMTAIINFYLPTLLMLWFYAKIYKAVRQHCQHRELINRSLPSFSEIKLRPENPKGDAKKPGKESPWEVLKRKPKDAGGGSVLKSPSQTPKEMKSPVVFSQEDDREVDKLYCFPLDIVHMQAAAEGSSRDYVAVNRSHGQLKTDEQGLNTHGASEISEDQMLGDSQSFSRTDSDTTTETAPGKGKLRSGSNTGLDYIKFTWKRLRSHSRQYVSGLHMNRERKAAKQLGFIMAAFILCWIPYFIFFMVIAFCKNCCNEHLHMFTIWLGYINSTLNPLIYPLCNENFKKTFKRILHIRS
Method: (§5) Each compound was tested in duplicate at 10^-6 M concentration.

M1 receptors = target: T1, M1 receptors (Homo sapiens, UniProt P11229); assay: biochemical; details: read-out: % inhibition of control binding at 10^−6M, M1
T1 sequence (P11229 1-460): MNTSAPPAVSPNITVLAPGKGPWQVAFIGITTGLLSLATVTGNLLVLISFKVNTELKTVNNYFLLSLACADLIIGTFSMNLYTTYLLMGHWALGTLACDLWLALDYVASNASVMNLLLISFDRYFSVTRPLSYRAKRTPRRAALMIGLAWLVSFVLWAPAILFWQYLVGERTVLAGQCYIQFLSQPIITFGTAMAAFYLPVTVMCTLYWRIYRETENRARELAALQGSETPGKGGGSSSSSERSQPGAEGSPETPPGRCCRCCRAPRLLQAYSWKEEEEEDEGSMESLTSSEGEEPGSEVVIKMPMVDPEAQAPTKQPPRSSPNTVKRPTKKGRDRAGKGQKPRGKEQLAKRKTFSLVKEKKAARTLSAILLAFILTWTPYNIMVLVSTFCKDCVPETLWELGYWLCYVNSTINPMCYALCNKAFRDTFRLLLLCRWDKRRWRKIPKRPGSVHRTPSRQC
Method: as §5

5-HT2C receptors = target: T2, 5-HT2C receptors (Homo sapiens, UniProt P28335); assay: biochemical; details: read-out: % inhibition of control binding at 10^−6M, 5-HT2C
T2 sequence (P28335 33-458): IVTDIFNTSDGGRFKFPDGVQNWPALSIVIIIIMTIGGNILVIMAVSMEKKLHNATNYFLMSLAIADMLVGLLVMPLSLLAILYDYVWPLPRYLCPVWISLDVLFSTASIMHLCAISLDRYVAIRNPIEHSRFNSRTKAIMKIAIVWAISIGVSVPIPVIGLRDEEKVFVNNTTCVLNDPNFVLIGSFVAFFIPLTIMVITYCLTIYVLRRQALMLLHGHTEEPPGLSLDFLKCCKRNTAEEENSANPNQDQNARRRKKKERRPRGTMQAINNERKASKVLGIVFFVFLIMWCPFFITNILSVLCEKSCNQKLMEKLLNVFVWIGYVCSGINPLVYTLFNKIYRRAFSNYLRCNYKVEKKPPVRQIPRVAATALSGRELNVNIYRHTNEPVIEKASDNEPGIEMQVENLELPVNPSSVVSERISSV
Method: as §5

D3 receptors = D3 receptors (Homo sapiens, UniProt P35462); assay: biochemical; details: read-out: % inhibition of control binding at 10^−6M, D3
D3 receptors, sequence (P35462 whole entry): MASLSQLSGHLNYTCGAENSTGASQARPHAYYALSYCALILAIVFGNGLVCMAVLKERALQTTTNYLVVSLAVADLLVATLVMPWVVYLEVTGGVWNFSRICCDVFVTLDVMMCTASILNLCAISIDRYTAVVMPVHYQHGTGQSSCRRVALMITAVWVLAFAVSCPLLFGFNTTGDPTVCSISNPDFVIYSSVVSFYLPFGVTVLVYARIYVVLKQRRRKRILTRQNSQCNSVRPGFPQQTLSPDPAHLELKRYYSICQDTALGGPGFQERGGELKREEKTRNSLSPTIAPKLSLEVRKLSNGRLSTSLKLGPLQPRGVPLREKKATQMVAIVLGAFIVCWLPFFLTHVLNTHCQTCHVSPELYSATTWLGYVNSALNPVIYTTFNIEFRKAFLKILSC
Method: as §5

5-HT7 receptor = 5-HT7 receptor (Homo sapiens, UniProt P34969); assay: Radioligand binding, 5-HT7 ([3H]-5-CT displacement)
5-HT7 receptor, sequence (P34969 1-432 limits assumed): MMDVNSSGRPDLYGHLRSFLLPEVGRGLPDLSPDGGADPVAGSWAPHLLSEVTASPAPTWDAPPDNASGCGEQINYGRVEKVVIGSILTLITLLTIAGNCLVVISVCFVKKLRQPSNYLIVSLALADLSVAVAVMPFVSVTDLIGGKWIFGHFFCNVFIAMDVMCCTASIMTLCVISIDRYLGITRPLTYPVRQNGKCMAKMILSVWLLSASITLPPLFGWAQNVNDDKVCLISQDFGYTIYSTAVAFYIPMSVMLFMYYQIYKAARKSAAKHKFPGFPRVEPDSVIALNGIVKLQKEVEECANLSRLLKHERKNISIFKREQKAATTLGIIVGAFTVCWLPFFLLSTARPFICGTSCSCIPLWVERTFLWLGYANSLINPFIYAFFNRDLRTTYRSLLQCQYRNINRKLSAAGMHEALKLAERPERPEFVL

dopamine D2L receptor = dopamine D2L receptor (Homo sapiens, UniProt P14416); assay: Radioligand binding, D2 ([3H]-raclopride displacement)
dopamine D2L receptor, sequence (P14416 whole entry): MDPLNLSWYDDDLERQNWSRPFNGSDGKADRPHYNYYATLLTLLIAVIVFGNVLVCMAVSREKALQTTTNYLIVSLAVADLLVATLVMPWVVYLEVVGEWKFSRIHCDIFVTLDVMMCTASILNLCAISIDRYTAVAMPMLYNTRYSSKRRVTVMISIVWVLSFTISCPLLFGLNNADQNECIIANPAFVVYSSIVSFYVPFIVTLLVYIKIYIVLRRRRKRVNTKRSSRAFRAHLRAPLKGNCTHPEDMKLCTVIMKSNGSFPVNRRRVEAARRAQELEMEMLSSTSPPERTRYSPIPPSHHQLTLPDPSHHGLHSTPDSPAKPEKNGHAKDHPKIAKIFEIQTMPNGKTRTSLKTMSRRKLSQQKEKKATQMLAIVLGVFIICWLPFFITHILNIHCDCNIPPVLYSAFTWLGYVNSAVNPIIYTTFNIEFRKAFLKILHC

5-HT1A receptor = target: T3, 5-HT1A receptor (Homo sapiens, UniProt P08908); assay: Radioligand binding, 5-HT1A ([3H]-8-OH-DPAT displacement)
T3 sequence (P08908 1-422): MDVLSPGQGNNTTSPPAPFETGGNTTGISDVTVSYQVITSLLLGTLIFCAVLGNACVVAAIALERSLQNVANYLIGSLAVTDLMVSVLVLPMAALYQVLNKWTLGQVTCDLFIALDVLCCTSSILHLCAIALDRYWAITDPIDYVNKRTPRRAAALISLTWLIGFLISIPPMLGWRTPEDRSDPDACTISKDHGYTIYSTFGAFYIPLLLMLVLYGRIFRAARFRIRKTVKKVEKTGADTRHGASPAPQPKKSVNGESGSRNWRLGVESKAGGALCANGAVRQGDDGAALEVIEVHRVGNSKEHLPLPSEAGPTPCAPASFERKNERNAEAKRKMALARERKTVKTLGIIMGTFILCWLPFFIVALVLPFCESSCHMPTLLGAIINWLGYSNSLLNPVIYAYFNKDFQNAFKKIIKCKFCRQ

## O=S(=O)(c1cccc(Cl)c1)n1ccc2c(N[C@@H]3CCNC3)nc3ccccc3c21 [Compound 7, (R)-1-((3-chlorophenyl)sulfonyl)-N-(pyrrolidin-3-yl)-1H-pyrrolo[3,2-c]quinolin-4-amine]
Wistar rats [1]
  Minimum effective dose, forced swim test in rats (potential antidepressant properties): 3 mg/kg
Wistar rats [2]
  Minimum effective dose, conflict drinking (Vogel test) in rats (potential anxiolytic properties): 10 mg/kg
H1 receptors
  inhibition at 1 µM: 17%
M1 receptors
  inhibition at 1 µM: -1%
5-HT2C receptors
  inhibition at 1 µM: 2%
D3 receptors
  inhibition at 1 µM: 82%
5-HT7 receptor
  Ki: 3940 nM
Dopamine D2L receptor
  Ki: 754 nM
5-HT1A receptor
  Ki: 2680 nM
